# Results from patent publication US8093275B2, “Oxazolone and pyrrolidinone-substituted pryidine amides as P2X3 and P2X2/3 antagonists” (Roche Palo Alto LLC, priority 2009, dated 2012).
# What was measured:
# rat P2X3 receptor = biological target: T1, rat P2X3 receptor (Rattus norvegicus, UniProt P49654); test: P2X3 FLIPR (Fluorometric Imaging Plate Reader) assay; assay type: cell-based; details: CHO-K1 cells transfected with rat P2X3, agonist α,β-meATP 1 μM, FLIPR calcium fluorescence; for Ki: read-out: pKi P2X3 (converted)
# T1 construct: expressed in transfected cells; host or cells: CHO-K1
# T1 sequence (P49654 1-397): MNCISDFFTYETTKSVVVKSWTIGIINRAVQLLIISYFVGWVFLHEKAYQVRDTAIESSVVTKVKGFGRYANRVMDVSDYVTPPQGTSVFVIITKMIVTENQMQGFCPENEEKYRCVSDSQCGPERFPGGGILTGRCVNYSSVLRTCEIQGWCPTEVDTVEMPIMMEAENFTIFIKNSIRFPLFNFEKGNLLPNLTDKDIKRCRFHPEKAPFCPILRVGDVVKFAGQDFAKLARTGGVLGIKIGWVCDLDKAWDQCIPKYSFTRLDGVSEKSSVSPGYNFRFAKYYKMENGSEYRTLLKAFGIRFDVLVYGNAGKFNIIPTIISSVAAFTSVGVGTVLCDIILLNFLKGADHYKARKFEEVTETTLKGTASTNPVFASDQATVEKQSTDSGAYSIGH
# Description: (§1) CHO-K1 cells were transfected with cloned rat P2X3 or human P2X2/3 receptor subunits and passaged in flasks. 18-24 hours before the FLIPR experiment, cells were released from their flasks, centrifuged, and resuspended in nutrient medium at 2.5×10^5 cells/ml. The cells were aliquoted into black-walled 96-well plates at a density of 50,000 cells/well and incubated overnight in 5% CO2 at 37° C. On the day of the experiment, cells were washed in FLIPR buffer (calcium- and magnesium-free Hank's balanced salt solution, 10 mM HEPES, 2 mM CaCl2, 2.5 mM probenecid; FB). Each well received 100 μl FB and 100 μl of the fluorescent dye Fluo-3 AM [2 μM final conc.]. After a 1 hour dye loading incubation at 37° C., the cells were washed 4 times with FB, and a final 75 μl/well FB was left in each well.
# (§2) Test compounds (dissolved in DMSO at 10 mM and serially diluted with FB) or vehicle were added to each well (25 μl of a 4× solution) and allowed to equilibrate for 20 minutes at room temperature. The plates were then placed in the FLIPR and a baseline fluorescence measurement (excitation at 488 nm and emission at 510-570 nm) was obtained for 10 seconds before a 100 μl/well agonist or vehicle addition. The agonist was a 2× solution of α,β-meATP producing a final concentration of 1 μM (P2X3) or 5 μM (P2X2/3). Fluorescence was measured for an additional 2 minutes at 1 second intervals after agonist addition. A final addition of ionomycin (5 μM, final concentration) was made to each well of the FLIPR test plate to establish cell viability and maximum fluorescence of dye-bound cytosolic calcium. Peak fluorescence in response to the addition of α,β-meATP (in the absence and presence of test compounds) was measured and inhibition curves generated using nonlinear regression. PPADS, a standard P2X antagonist, was used as a positive control.
# human P2X2/3 receptor = biological target: T2, human P2X2/3 receptor (Homo sapiens, UniProt P56373+Q9UBL9); test: P2X2/3 FLIPR (Fluorometric Imaging Plate Reader) assay; assay type: cell-based; details: CHO-K1 cells transfected with human P2X2/3; agonist α,β-meATP 5 μM; FLIPR calcium fluorescence; read-out: pKi P2X2/3 (converted)
# T2 construct: expressed in transfected cells; host or cells: CHO-K1
# T2 sequence (Q9UBL9 1-471): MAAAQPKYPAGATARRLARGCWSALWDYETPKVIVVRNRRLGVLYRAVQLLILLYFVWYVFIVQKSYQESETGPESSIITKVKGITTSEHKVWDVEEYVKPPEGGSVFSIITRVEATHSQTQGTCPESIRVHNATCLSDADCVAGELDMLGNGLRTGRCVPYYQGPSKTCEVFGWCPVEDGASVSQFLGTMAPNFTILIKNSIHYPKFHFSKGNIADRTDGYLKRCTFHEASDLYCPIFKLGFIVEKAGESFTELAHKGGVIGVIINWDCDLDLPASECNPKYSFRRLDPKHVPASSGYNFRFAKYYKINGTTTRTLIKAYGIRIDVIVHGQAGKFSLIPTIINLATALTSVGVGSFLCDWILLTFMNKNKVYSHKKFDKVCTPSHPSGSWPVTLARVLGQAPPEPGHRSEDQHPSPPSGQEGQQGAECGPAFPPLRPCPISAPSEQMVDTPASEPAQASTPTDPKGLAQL
# T2 sequence (P56373 1-397): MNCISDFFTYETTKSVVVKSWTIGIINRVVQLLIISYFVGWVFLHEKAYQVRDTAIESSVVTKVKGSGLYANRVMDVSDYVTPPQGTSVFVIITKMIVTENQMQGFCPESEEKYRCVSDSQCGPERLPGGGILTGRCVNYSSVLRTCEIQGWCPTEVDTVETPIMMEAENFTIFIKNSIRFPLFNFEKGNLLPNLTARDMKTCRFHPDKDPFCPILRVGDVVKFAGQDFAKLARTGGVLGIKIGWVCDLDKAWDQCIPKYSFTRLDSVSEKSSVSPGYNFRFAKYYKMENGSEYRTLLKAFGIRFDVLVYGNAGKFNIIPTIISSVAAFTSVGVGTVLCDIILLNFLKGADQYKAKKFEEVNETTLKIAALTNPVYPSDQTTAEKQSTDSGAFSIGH
# Description: as §1, §2
SMILES,Ki (rat P2X3 receptor),Ki (human P2X2/3 receptor),pKi P2X3 (rat P2X3 receptor)
"Cc1ccc(-c2cc(C(=O)NCc3cnc(C)cn3)cc(-n3c(=O)oc4ccccc43)c2)nc1 [Compound 1, N-(5-Methyl-pyrazin-2-ylmethyl)-3-(5-methyl-pyridin-2-yl)-5-(2-oxo-benzooxazol-3-yl)-benzamide]",7.94 nM,28.8 nM,–
"Cc1ccc(-c2cc(C(=O)NC(C)c3cnccn3)cc(-n3c(=O)oc4ccccc43)c2)nc1 (stereo not shown) [Compound 2, 3-(5-Methyl-pyridin-2-yl)-5-(2-oxo-benzooxazol-3-yl)-N-(1-pyrazin-2-yl-ethyl)-benzamide]",3.09 nM,28.2 nM,–
"Cc1ccc(-c2cc(C(=O)N[C@@H](C)CO)cc(-n3c(=O)oc4ccccc43)c2)nc1 [Compound 3, N-((S)-2-Hydroxy-l-methyl-ethyl)-3-(5-methyl-pyridin-2-yl)-5-(2-oxo-benzooxazol-3-yl)-benzamide]",3.31 nM,234 nM,–
"Cc1ccc(-c2cc(C(=O)NC(C)c3cnccn3)cc(-n3c(=O)[nH]c4ccccc43)c2)nc1 (stereo not shown) [Compound 4, 3-(5-Methyl-pyridin-2-yl)-5-(2-oxo-2,3-dihydro-benzoimidazol-1-yl)-N-(1-pyrazin-2-yl-ethyl)-benzamide]",4.07 nM,191 nM,–
"Cc1ccc(-c2cc(C(=O)NCc3cnc(C)cn3)cc(N3C(=O)Cc4ccccc43)c2)nc1 [Compound 5, N-(5-Methyl-pyrazin-2-ylmethyl)-3-(5-methyl-pyridin-2-yl)-5-(2-oxo-2,3-dihydro-indol-1-yl)-benzamide]",8.91 nM,89.1 nM,–
"Cc1ccc(-c2cc(C(=O)NC(C)c3cnccn3)cc(N3C(=O)Cc4ccccc43)c2)nc1 (stereo not shown) [Compound 6, 3-(5-Methyl-pyridin-2-yl)-5-(2-oxo-2,3-dihydro-indol-1-yl)-N-(1-pyrazin-2-yl-ethyl)-benzamide]",7.41 nM,117 nM,–
"COC[C@@H](C)NC(=O)c1cc(-c2ccc(C)cn2)cc(N2C(=O)OC[C@H]2C(C)C)c1 [Compound 7, 3-((R)-4-Isopropyl-2-oxo-oxazolidin-3-yl)-N-((R)-2-methoxy-1-methyl-ethyl)-5-(5-methyl-pyridin-2-yl)-benzamide]",5.25 nM,562 nM,–
"Cc1ccc(-c2cc(C(=O)NC3CC3)cc(N3C(=O)OC[C@H]3C(C)C)c2)nc1 [Compound 8, N-Cyclopropyl-3-((R)-4-isopropyl-2-oxo-oxazolidin-3-yl)-5-(5-methyl-pyridin-2-yl)-benzamide]",2.69 nM,132 nM,–
"Cc1ccc(-c2cc(C(=O)N[C@@H](C)CO)cc(N3C(=O)OC[C@H]3C(C)C)c2)nc1 [Compound 9, N-((S)-2-Hydroxy-1-methyl-ethyl)-3-((R)-4-isopropyl-2-oxo-oxazolidin-3-yl)-5-(5-methyl-pyridin-2-yl)-benzamide]",2.24 nM,195 nM,–
"Cc1ccc(-c2cc(C(=O)NC(C)c3cnccn3)cc(N3C(=O)OC[C@H]3C)c2)nc1 (stereo partly drawn) [Compound 15, 3-((R)-4-Methyl-2-oxo-oxazolidin-3-yl)-5-(5-methyl-pyridin-2-yl)-N-(1-pyrazin-2-yl-ethyl)-benzamide]",1000 nM,–,–
"Cc1ccc(-c2cc(C(=O)NCc3cnc(C)cn3)cc(N3C(=O)OCC3(C)C)c2)nc1 [Compound 21, 3-(4,4-Dimethyl-2-oxo-oxazolidin-3-yl)-N-(5-methyl-pyrazin-2-ylmethyl)-5-(5-methyl-pyridin-2-yl)-benzamide]",3.55 nM,–,–
"CCC[C@@H]1COC(=O)N1c1cc(C(=O)N[C@@H](C)CO)cc(-c2ccc(C)cn2)c1 [Compound 22, N-((S)-2-Hydroxy-1-methyl-ethyl)-3-(5-methyl-pyridin-2-yl)-5-((R)-2-oxo-4-propyl-oxazolidin-3-yl)-benzamide]",3800 nM,–,–
"CCC[C@@H]1COC(=O)N1c1cc(C(=O)NC(C)c2cnccn2)cc(-c2ccc(C)cn2)c1 (stereo partly drawn) [Compound 23, 3-(5-Methyl-pyridin-2-yl)-5-((R)-2-oxo-4-propyl-oxazolidin-3-yl)-N-(1-pyrazin-2-yl-ethyl)-benzamide]",85.1 nM,–,–
"CCC[C@@H]1COC(=O)N1c1cc(C(=O)NCc2cnc(C)cn2)cc(-c2ccc(C)cn2)c1 [Compound 24, N-(5-Methyl-pyrazin-2-ylmethyl)-3-(5-methyl-pyridin-2-yl)-5-((R)-2-oxo-4-propyl-oxazolidin-3-yl)-benzamide]",166 nM,–,–
"Cc1ccc(-c2cc(C(=O)N[C@@H](C)CO)cc(N3C(=O)OCC3(C)C)c2)nc1 [Compound 25, 3-(4,4-Dimethyl-2-oxo-oxazolidin-3-yl)-N-((S)-2-hydroxy-1-methyl-ethyl)-5-(5-methyl-pyridin-2-yl)-benzamide]",28.2 nM,–,–
"Cc1ccc(-c2cc(C(=O)N[C@@H](C)CO)cc(N3C(=O)CCC3C)c2)nc1 (stereo partly drawn) [Compound 26, N-((S)-2-Hydroxy-1-methyl-ethyl)-3-(2-methyl-5-oxo-pyrrolidin-1-yl)-5-(5-methyl-pyridin-2-yl)-benzamide]",912 nM,–,–
"COCC(C)NC(=O)c1cc(-c2ccc(C)cc2)cc(N2CCNC2=O)c1 (stereo not shown) [Compound 35, 4′-Methyl-5-(2-oxo-imidazolidin-1-yl)-biphenyl-3-carboxylic acid (2-methoxy-1-methyl-ethyl)-amide]",–,–,5.28
"COCC(C)NC(=O)c1cc(-c2ccc(C)cc2)cc(N2C(=O)CCC2C)c1 (stereo not shown) [Compound 36, 4′-Methyl-5-(2-methyl-5-oxo-pyrrolidin-1-yl)-biphenyl-3-carboxylic acid (2-methoxy-1-methyl-ethyl)-amide]",575 nM,–,–
"Cc1ccc(-c2cc(C(=O)NC3CC3)cc(N3C(=O)OC[C@@H]3C(C)C)c2)cc1 [Compound 42, 5-((S)-4-Isopropyl-2-oxo-oxazolidin-3-yl)-4′-methyl-biphenyl-3-carboxylic acid cyclopropylamide]",1480 nM,–,–
"Cc1ccc(-c2cc(C(=O)N[C@@H](C)CO)cc(N3C(=O)OC[C@@H]3C(C)C)c2)cc1 [Compound 43, 5-((S)-4-Isopropyl-2-oxo-oxazolidin-3-yl)-4′-methyl-biphenyl-3-carboxylic acid ((S)-2-hydroxy-1-methyl-ethyl)-amide]",2570 nM,–,–
"Cc1ccc(-c2cc(C(=O)NCc3cnc(C)cn3)cc(N3C(=O)OC[C@@H]3C(C)C)c2)cc1 [Compound 44, 5-((S)-4-Isopropyl-2-oxo-oxazolidin-3-yl)-4′-methyl-biphenyl-3-carboxylic acid (5-methyl-pyrazin-2-ylmethyl)-amide]",1020 nM,–,–
"COCC(C)NC(=O)c1cc(-c2ccc(C)cc2)cc(N2CCNC2=O)c1 (stereo not shown) [Compound 52, 4′-Methyl-5-(2-oxo-imidazolidin-1-yl)-biphenyl-3-carboxylic acid (2-methoxy-1-methyl-ethyl)-amide]",5250 nM,–,–
